{"source": "patent US20100130600A1", "about": "“LIPOPROTEIN LIPASE AND ITS EFFECT ON STATIN TREATMENTS” (CEDARS-SINAI MEDICAL CENTER, priority 2007, published 2010)", "experiment": "Post-CABG Trial: lipid response to lovastatin therapy (baseline vs post-treatment lipid levels)", "type": "in vivo, human", "procedure": "As described herein, the inventors asked whether LPL haplotypes influence response to lipid-lowering therapy. They studied 830 subjects from the Post-Coronary Artery Bypass Graft trial, in which subjects with at least one patent saphenous vein graft were treated moderately or aggressively with lovastatin. A lipid profile was obtained at baseline and 4-5 years after treatment. 12 SNPs spanning the 3′ end of LPL were genotyped using the 5′-exonuclease (Taqman MBG) reaction. Haplotypes were constructed using the accelerated expectation maximization algorithm implemented in the program Haploview. Association with lipid response was evaluated using analysis of covariance (ANCOVA). Age, body mass index, race, current smoking status, time between CABG and study enrollment, and lovastatin treatment group were taken as covariates in the association analyses. […] Conversely, Haplotypes 6, 7, and 8 were each associated with increased HDL-C response to therapy compared to respective non-carriers. Haplotype 2 was associated with a smaller increment in triglycerides (Haplotype 2 carriers: +2.6% versus non-carriers: +11.8% change in triglycerides, P=0.02). These effects of LPL haplotypes on HDL-C and triglyceride response were independent of whether subjects were in the intensive or moderate treatment group. […] The most common haplotype, haplotype 1, was protective against graft worsening or occlusion. LPL may influence atherosclerosis risk through pleiotropic effects on each aspect of the metabolic syndrome.\nThis genetic association study is ancillary to the Post-Coronary Artery Bypass Graft Trial (Post-CABG Trial) (Taylor K D, Genet Med 2004, 6: 481-486; The Post Coronary Artery Bypass Graft Trial Investigators, N Engl J Med 1997, 336: 153-162). A total of 1351 subjects from seven clinical centers throughout North America were included in the clinical trial and all were eligible as participants in this genetic ancillary study. Inclusion and exclusion criteria have been previously described (The Post Coronary Artery Bypass Graft Trial Investigators, N Engl J Med 1997, 336: 153-162). Subjects were randomly assigned for treatment to lower LDL-cholesterol levels with lovastatin, aggressively (target LDL 1.55-2.20 mmol/L (60-85 mg/dL)), cholestryramine added to lovastatin if necessary to reach target) or moderately (target LDL 3.36-3.62 mmol/L (130-140 mg/dL)). For the genetic study, DNA was isolated from 903 subjects following standard protocols. Follow-up complete angiographic data, lipid values, and DNA were available from 891 of these individuals. Subjects in this genetic study were collected in the latter years of the larger Post-CABG trial.\nAll demographic, family history, medical history, and clinical data were collected as part of the Post-CABG Trial.14 The progression of atherosclerosis was quantitatively determined by comparison of an initial angiogram at enrollment with a follow-up angiogram repeated an average of 4.3 years later. Baseline and follow-up angiography were obtained with catheterization techniques that permitted computer-assisted quantitative measurement. An initially patent graft was defined as having progression of atherosclerosis if there was a decrease of 0.6 mm or more in lumen diameter at the site of greatest change at follow-up. Subjects with “progression of atherosclerosis” were defined as those subjects with one or more grafts showing progression. Graft occlusion was also assessed. Baseline and post-treatment lipid levels (total cholesterol, TC; LDL-cholesterol, LDL-C; HDL-cholesterol, HDL-C; and triglycerides, TG) were obtained.\nThe primary phenotypes analyzed for association with LPL haplotypes were: a) the progression of atherosclerosis, and b) lipid response to lovastatin therapy. Secondary analyses included association of the LPL haplotypes with baseline lipid and systolic and diastolic blood pressure (SBP and DBP) measurements. […]", "key": {"[1]": {"details": "891 post-CABG subjects, mean ± SD (range)"}, "[2]": {"details": "aggressive treatment group (target LDL 60-85 mg/dL, cholestyramine added if necessary)"}, "[3]": {"details": "moderate treatment group (target LDL 130-140 mg/dL)"}}}
{"smiles": "CC[C@H](C)C(=O)O[C@H]1C[C@@H](C)C=C2C=C[C@H](C)[C@H](CC[C@@H]3C[C@@H](O)CC(=O)O3)[C@H]21", "note": "[lovastatin]", "values": [{"measurement": "HDL-C response", "setting": "[1]", "result": "13.8 ± 24.4 (−61.9-153.1) %"}, {"measurement": "LDL-C response", "setting": "[1]", "result": "−25.7 ± 20.6 (−78.8-45.9) %"}, {"measurement": "Total cholesterol response", "setting": "[1]", "result": "−15.3 ± 16.3 (−58.4-43.5) %"}, {"measurement": "Triglyceride response", "setting": "[1]", "result": "7.5 ± 53.0 (−81.6-330.2) %"}, {"measurement": "reduction in LDL-C", "setting": "Post-CABG trial, overall", "result": 26, "unit": "%"}, {"measurement": "reduction in total cholesterol (TC)", "setting": "Post-CABG trial, overall", "result": 15, "unit": "%"}, {"measurement": "reduction in LDL-C", "setting": "[2]", "result": 37, "unit": "%"}, {"measurement": "reduction in total cholesterol (TC)", "setting": "[2]", "result": 23, "unit": "%"}, {"measurement": "Response in HDL-C and triglycerides (TG)", "setting": "aggressive versus moderate treatment group", "result": "did not differ between the two treatment groups"}, {"measurement": "Percent change in HDL-C", "setting": "carriers of LPL haplotype 12-1, mean ± SD", "result": "12.6 ± 24.3 (568) %"}, {"measurement": "change in triglycerides", "setting": "carriers of LPL haplotype 12-2", "result": "+2.6%"}, {"measurement": "Percent change in HDL-C", "setting": "carriers of LPL haplotype 12-2, mean ± SD", "result": "12.4 ± 24.5 (295) %"}, {"measurement": "Percent change in HDL-C", "setting": "carriers of LPL haplotype 12-3, mean ± SD", "result": "14.2 ± 23.5 (262) %"}, {"measurement": "Percent change in HDL-C", "setting": "carriers of LPL haplotype 12-5, mean ± SD", "result": "11.4 ± 25.6 (61) %"}, {"measurement": "Percent change in HDL-C", "setting": "carriers of LPL haplotype 12-6, mean ± SD", "result": "24.8 ± 19.8 (52) %"}, {"measurement": "Percent change in HDL-C", "setting": "carriers of LPL haplotype 12-7, mean ± SD", "result": "21.9 ± 24.1 (44) %"}, {"measurement": "Percent change in HDL-C", "setting": "carriers of LPL haplotype 12-8, mean ± SD", "result": "23.0 ± 26.0 (43) %"}, {"measurement": "reduction in LDL-C", "setting": "[3]", "result": 14, "unit": "%"}, {"measurement": "reduction in total cholesterol (TC)", "setting": "[3]", "result": 7, "unit": "%"}, {"measurement": "Percent change in HDL-C", "setting": "non-carriers of LPL haplotype 12-1, mean ± SD", "result": "15.2 ± 24.2 (261) %"}, {"measurement": "change in triglycerides", "setting": "non-carriers of LPL haplotype 12-2", "result": "+11.8%"}, {"measurement": "Percent change in HDL-C", "setting": "non-carriers of LPL haplotype 12-2, mean ± SD", "result": "14.0 ± 24.2 (534) %"}, {"measurement": "Percent change in HDL-C", "setting": "non-carriers of LPL haplotype 12-3, mean ± SD", "result": "13.1 ± 24.7 (567) %"}, {"measurement": "Percent change in HDL-C", "setting": "non-carriers of LPL haplotype 12-5, mean ± SD", "result": "13.6 ± 24.2 (768) %"}, {"measurement": "Percent change in HDL-C", "setting": "non-carriers of LPL haplotype 12-6, mean ± SD", "result": "12.7 ± 24.4 (777) %"}, {"measurement": "Percent change in HDL-C", "setting": "non-carriers of LPL haplotype 12-7, mean ± SD", "result": "13.0 ± 24.3 (785) %"}, {"measurement": "Percent change in HDL-C", "setting": "non-carriers of LPL haplotype 12-8, mean ± SD", "result": "12.8 ± 24.4 (786) %"}]}
